The values that follow come from ChEMBL document CHEMBL3784966, “Approaching the active conformation of 1,3-diaminopyrimidine based covalent inhibitors of Bruton's tyrosine kinase for treatment of Rheumatoid arthritis” (Bioorg Med Chem Lett, 2016).

A short description of data set [1]: Antiproliferative activity against B cells (unknown origin). To be noted: B-cell. The format is functional, cell-based.
A short description of data set [2]: Plasma clearance in Sprague-Dawley rat at 2 mg/kg, iv. Format: ADME, organism-based.
The nature of data set [3]: Cmax in Sprague-Dawley rat at 2 mg/kg, po. The format is ADME, organism-based. To be noted: in vivo. Also noted: dose 2 mg/kg, route oral.
Data set [4] can be described thus: Half life in Sprague-Dawley rat at 2 mg/kg, po. Format: ADME, organism-based. To be noted: in vivo.
A short description of data set [5]: AUC(0 to t) in Sprague-Dawley rat at 2 mg/kg, po. The format is ADME, organism-based. To be noted: in vivo.
The target in data set [6] is Tyrosine-protein kinase BTK (Homo sapiens, UniProt Q06187). As to the kind of experiment: Inhibition of BTK (unknown origin).
Sequence of Tyrosine-protein kinase BTK (Q06187 whole entry): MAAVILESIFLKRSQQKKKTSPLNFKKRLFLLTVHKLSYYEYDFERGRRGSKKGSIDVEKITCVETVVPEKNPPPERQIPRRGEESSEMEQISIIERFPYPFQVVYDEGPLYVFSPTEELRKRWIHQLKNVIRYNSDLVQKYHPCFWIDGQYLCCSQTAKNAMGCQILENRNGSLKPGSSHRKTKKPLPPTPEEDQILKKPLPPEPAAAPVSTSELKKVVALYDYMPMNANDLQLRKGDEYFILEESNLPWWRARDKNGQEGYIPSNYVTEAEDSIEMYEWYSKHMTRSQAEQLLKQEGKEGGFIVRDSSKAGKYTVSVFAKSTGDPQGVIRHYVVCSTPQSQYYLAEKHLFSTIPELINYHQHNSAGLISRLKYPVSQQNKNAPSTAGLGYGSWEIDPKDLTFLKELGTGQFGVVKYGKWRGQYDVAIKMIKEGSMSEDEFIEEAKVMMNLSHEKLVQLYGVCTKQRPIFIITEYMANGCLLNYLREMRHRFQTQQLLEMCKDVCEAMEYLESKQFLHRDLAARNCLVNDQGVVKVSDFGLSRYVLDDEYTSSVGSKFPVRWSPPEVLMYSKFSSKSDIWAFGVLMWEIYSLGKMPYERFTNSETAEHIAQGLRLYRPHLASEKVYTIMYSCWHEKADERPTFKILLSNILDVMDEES
Data set [7] can be described thus: Oral bioavailability in Sprague-Dawley rat at 2 mg/kg. Format: ADME, organism-based. The conditions noted are these: in vivo.
A short description of data set [8]: Metabolic stability in Beagle dog plasma assessed as remaining compound at 1 uM after 4 hrs by LC-MS/MS analysis. The conditions noted are these: read-out: Stability. The format is ADME, cell-free, Canis lupus familiaris.
Data set [9] is described as follows: Metabolic stability in Sprague-Dawley rat plasma assessed as remaining compound at 1 uM after 4 hrs by LC-MS/MS analysis. The format is ADME, cell-free. The conditions noted are these: read-out: Stability.
Data set [10] is described as follows: Metabolic stability in human plasma assessed as remaining compound at 1 uM after 4 hrs by LC-MS/MS analysis. Format: ADME, cell-free. The conditions noted are these: read-out: Stability.

Each structure is given as a SMILES string.

One may read the IC50 as the concentration at which inhibition is half-maximal. A higher IC50 goes with weaker potency in that assay. The clearance is a measure of how efficiently the substance is removed, as volume per time. A lower clearance goes with a low capacity for elimination. Usually Cmax stands for the peak of the concentration-time curve. In general, half-life refers to the time needed for the level to fall by half in the phase considered. Higher therefore signals slow loss. In general, AUC(0-t) refers to the area under the concentration-time curve up to a stated or last time point. In general, bioavailability refers to the share of a dose that reaches the circulation, judged against a reference dose that is usually intravenous. With `C=CC(=O)Nc1cccc(-n2c(=O)n(C)c3cnc(Nc4ccc(Oc5ccnc(C(=O)NC)c5)cc4)nc32)c1`, the IC50 was determined as 13.7 nM in data set [1] and 13 nM in [6]. The clearance in data set [2] was 30 mL/min/kg. In data set [3], this molecule registered a Cmax of 107 ng/mL. Moreover, the half-life in data set [4] was 2.4 h. In [5], the AUC(0-t) stood at 100 ng·h/mL. The bioavailability in [7] is 9%.
The molecule `C=CC(=O)Nc1cccc(-n2c(=O)n(C3CCOCC3)c3cnc(Nc4ccc(OC)nc4)nc32)c1` returned an IC50 in [6] of 318 nM.
On the same count and under the same terms, next, `C=CC(=O)Nc1cccc(Nc2nc(Nc3ccc(OCCOC)cc3)ncc2S(C)(=O)=O)c1`: 31.2 nM.
With `C=CC(=O)Nc1cccc(-n2c(=O)n(C)c3cnc(Nc4ccc(OCCOC)cc4)nc32)c1`, the results for the remaining at 4 h, 1 µM in data set [8], in data set [9] and in data set [10] were 16.2%, 27.5% and 42.2%, respectively. Besides, the IC50 in data set [1] was 6.84 nM; in [6] it was 4.11 nM. In [2], the clearance was 253 mL/min/kg. Moreover, in data set [3], the highest level (Cmax) was 41 ng/mL. Further, the half-life in data set [4] was 1.4 h. The molecule also yielded an AUC(0-t) in data set [5] of 27 ng·h/mL. The molecule also returned a bioavailability in data set [7] of 20%.
`C=CC(=O)Nc1cccc(-n2c(=O)n(CC3CC3)c3cnc(Nc4ccc(N5CCOCC5)cc4)nc32)c1`: the remaining at 4 h, 1 µM in [8] was determined as 93.4%; in data set [9] it was 80.5%; in [10], 40.8%. The values for the IC50 in [1] and in data set [6] were 70.6 nM and 31 nM, respectively.
The molecule `C=CC(=O)Nc1cccc(-n2c(=O)n(CCOC)c3cnc(Nc4ccc(OC)nc4)nc32)c1` gave an IC50 in data set [6] of 265 nM.
Consider `C=CC(=O)Nc1cccc(Nc2nc(Nc3ccc(OCCOC)cc3)ncc2SC)c1`, for which the figures for the IC50 in [1] and in data set [6] were 30.6 nM and 6.6 nM, respectively.
The corresponding values for `C=CC(=O)Nc1cccc(Nc2nc(Nc3ccc(N4CCOCC4)cc3)ncc2SC)c1` are 64 nM and 1.08 nM.
Regarding `C=CC(=O)Nc1cccc(-n2c(=O)n(CC3CC3)c3cnc(Nc4ccc(OC)nc4)nc32)c1`, the IC50 in [6] is 222 nM.
In the case of `C=CC(=O)Nc1cccc(-n2c(=O)n(CC3CC3)c3cnc(Nc4ccc(N(C)C)nc4)nc32)c1`, the IC50 in [1] was found to be 818 nM; in [6], 30.6 nM.
Consider `C=CC(=O)Nc1cccc(Nc2nc(Nc3ccc(N4CCOCC4)cc3)ncc2[S+](C)[O-])c1` (racemic), for which the values for the IC50 in data set [1] and in data set [6] were 3.55 nM and 0.903 nM, respectively.
`C=CC(=O)Nc1cccc(Nc2nc(Nc3ccc(OCCOC)cc3)ncc2[S+](C)[O-])c1` (racemic): the remaining at 4 h, 1 µM was found to be 94.3% in data set [8], 90.7% in [9] and 86.7% in data set [10]. For the same molecule, the IC50 turned out to be 5.85 nM in data set [1] and 3.76 nM in data set [6]. This molecule had a clearance in [2] of 108 mL/min/kg. Also, the Cmax in data set [3] came out at 55 ng/mL. This molecule also had a half-life in data set [4] of 1.3 h. This molecule also returned an AUC(0-t) in data set [5] of 73 ng·h/mL. This molecule gave a bioavailability in data set [7] of 23%.
As for `C=CC(=O)Nc1cccc(Nc2nc(Nc3ccc(N(C)C)nc3)ncc2[S+](C)[O-])c1` (racemic), the IC50 in data set [1] worked out at 14.9 nM; in [6] it was 1.48 nM.
For `C=CC(=O)Nc1cccc(Nc2nc(Nc3ccc(Oc4ccnc(C(=O)NC)c4)cc3)ncc2[S+](C)[O-])c1` (racemic), the IC50 in [1] came to 19.4 nM; in data set [6], 5.65 nM.
With `C=CC(=O)Nc1cccc(Nc2nc(Nc3ccc(OCCOC)cc3)ncc2F)c1` [SPEBRUTINIB], in [1], the half-inhibitory concentration (IC50) came to 3.28 nM.
